Experiments:
annual bluegrass = assay: Test E annual bluegrass; format: in vivo, Poa annua; conditions: Postemergence; for Plant response rating, Annual bluegras: 0 to 100 scale
In short: (§1)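 Compound formulated with surfactant in a non-phytotoxic solvent (postemergence: young 1- to 4-leaf plants); held in greenhouse approx. 21–28 days; visual assessment against untreated plants.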

blackgrass = assay: Test E blackgrass; format: in vivo, Alopecurus myosuroides; conditions: Postemergence; for Plant response rating, Blackgrass: 0 to 100 scale
In short: as §1

chickweed = assay: Test E chickweed; format: in vivo, Stellaria media; conditions: Postemergence; for Plant response rating, Chickweed: 0 to 100 scale
In short: as §1

common poppy = assay: Test E common poppy; format: in vivo, Papaver rhoeas; conditions: Postemergence
In short: as §1

deadnettle = assay: Test E deadnettle; format: in vivo, Lamium amplexicaule; conditions: Postemergence, 0 to 100 scale
In short: as §1

field violet = assay: Test E field violet; format: in vivo, Viola arvensis; conditions: Postemergence; for Plant response rating, Field violet: 0 to 100 scale
In short: as §1

Italian ryegrass = assay: Test E Italian ryegrass; format: in vivo, Lolium multiflorum; conditions: Postemergence; for Plant response rating, I. Ryegrass: 0 to 100 scale
In short: as §1

littleseed canarygrass [1] = assay: Test E littleseed canarygrass; format: in vivo, Phalaris minor; conditions: Postemergence; for Plant response rating, LS canarygrass: 0 to 100 scale
In short: as §1

redroot pigweed = assay: Test E redroot pigweed; format: in vivo, Amaranthus retroflexus; conditions: Postemergence; for Plant response rating, Redroot pigweed: 0 to 100 scale
In short: as §1

wild oat = assay: Test E wild oat; format: in vivo, Avena fatua; conditions: Postemergence; for Plant response rating, Wild oat: 0 to 100 scale
In short: as §1

common ragweed = assay: Test D common ragweed; format: in vivo, Ambrosia elatior; conditions: Postemergence, 0 to 100 scale
common groundsel = assay: Test D common groundsel; format: in vivo, Senecio vulgaris; conditions: Postemergence, 0 to 100 scale
pitted morningglory = assay: Test D pitted morningglory; format: in vivo, Ipomoea lacunosa; conditions: Postemergence, 0 to 100 scale
purple nutsedge = assay: Test D purple nutsedge; format: in vivo, Cyperus rotundus; conditions: Postemergence, 0 to 100 scale; for Purple nutsedge plant response rating: 0 no injury, 100 complete control
surinam grass = assay: Test D surinam grass; format: in vivo, Brachiaria decumbens; conditions: Rate 500 g/ha; Postemergence; 0 to 100 scale
tall mallow = assay: Test D tall mallow; format: in vivo, Malva sylvestris; conditions: Postemergence, 0 to 100 scale; for Tall Mallow plant response rating: 0 no injury, 100 complete control
galium = assay: Test E galium; format: in vivo, Galium aparine; conditions: Preemergence
jointed goatgrass = assay: Test E jointed goatgrass; format: in vivo, Aegilops cylindrica; conditions: Preemergence
lambsquarters = assay: Test E lambsquarters; format: in vivo, Chenopodium album; conditions: Preemergence
littleseed canarygrass [2] = assay: Test E littleseed canarygrass; format: in vivo, Phalaris minor; conditions: Preemergence
rape = assay: Test E rape; format: in vivo, Brassica napus; conditions: Preemergence
Russian thistle = assay: Test E Russian thistle; format: in vivo, Salsola kali; conditions: Preemergence
spring barley = assay: Test E spring barley; format: in vivo, Hordeum vulgare; conditions: Preemergence
windgrass = assay: Test E windgrass; format: in vivo, Apera spica-venti; conditions: Preemergence
[3] = Rate 500 g/ha, 0 no effect, 100 complete control
[4] = Rate 250 g/ha, 0 to 100 scale where 0 is no effect and 100 is complete control
[5] = Rate 64 g/ha, 0 no injury, 100 complete control
[6] = Rate 125 g/ha, 0 no injury, 100 complete control
[7] = Rate 125 g/ha, 0 to 100 scale (0 no effect, 100 complete control)
[8] = Rate 500 g/ha, 0 to 100 scale where 0 is no effect and 100 is complete control

C=CCn1c(=O)on(C(=O)N(c2ccc(F)cc2)C(C)C)c1=O [Compound 146]
15: Blackgrass plant response rating (blackgrass; [4])
50: Plant response rating, Deadnettle (deadnettle; Rate 62 g/ha) | Plant response rating, Field violet (field violet; Rate 62 g/ha) | Plant response rating, I. Ryegrass (Italian ryegrass; Rate 62 g/ha) | Plant response rating, I. Ryegrass (Italian ryegrass; [3]) | Plant response rating, Redroot pigweed (redroot pigweed; [3]) | Plant response rating, P. morninglory (pitted morningglory; Rate 250 g/ha) | Plant response rating, Tall Mallow (tall mallow; Rate 500 g/ha) | Galium plant response rating (0 to 100 scale) (galium; Rate 250 g/ha) | Jointed goatgra plant response rating (0 to 100 scale) (jointed goatgrass; Rate 250 g/ha) | Plant response rating, Jointed goatgra (jointed goatgrass; [8])
0: Plant response rating, Chickweed (chickweed; Rate 125 g/ha) | Chickweed plant response rating (chickweed; [4]) | Common poppy plant response rating (common poppy; [4]) | Plant response rating, Field violet (field violet; Rate 125 g/ha) | Field violet plant response rating (field violet; [4]) | Wild oat plant response rating (wild oat; [4]) | Plant response rating, C. ragweed (common ragweed; [5]) | Plant response rating, C. ragweed (common ragweed; [6]) | Plant response rating, Com. groundsel (common groundsel; [5]) | Plant response rating, Com. groundsel (common groundsel; [6]) | Plant response rating, Com. groundsel (common groundsel; Rate 250 g/ha) | Plant response rating, Com. groundsel (common groundsel; Rate 500 g/ha) | Purple nutsedge plant response rating (purple nutsedge; Rate 64 g/ha) | Purple nutsedge plant response rating (purple nutsedge; Rate 125 g/ha) | Plant response rating, Purple nutsedge (purple nutsedge; Rate 250 g/ha) | Tall Mallow plant response rating (tall mallow; Rate 64 g/ha) | Tall Mallow plant response rating (tall mallow; Rate 125 g/ha) | Plant response rating, Tall Mallow (tall mallow; Rate 250 g/ha) | Plant response rating, Russian thistle (Russian thistle; [7]) | Russian thistle plant response rating (0 to 100 scale) (Russian thistle; Rate 250 g/ha)
95: Plant response rating, Galium (galium; [8])
60: Plant response rating, Common poppy (common poppy; Rate 62 g/ha, 0 to 100 scale) | Plant response rating, Rape (rape; [7]) | Plant response rating, Rape (rape; [8])
85: Plant response rating, Annual bluegras (annual bluegrass; Rate 62 g/ha) | Plant response rating, LS canarygrass (littleseed canarygrass [2]; [8])
90: Plant response rating, Spring Barley (spring barley; [8])
80: Plant response rating Surinam grass (surinam grass) | Rape plant response rating (0 to 100 scale) (rape; Rate 250 g/ha)
75: LS canarygrass plant response rating (0 to 100 scale) (littleseed canarygrass [2]; Rate 250 g/ha)
25: Plant response rating, Blackgrass (blackgrass; Rate 125 g/ha)
40: Plant response rating, Blackgrass (blackgrass; [3]) | Plant response rating, C. ragweed (common ragweed; Rate 500 g/ha) | Plant response rating, P. morninglory (pitted morningglory; [6]) | Plant response rating, Galium (galium; [7]) | Plant response rating, LS canarygrass (littleseed canarygrass [2]; [7])
20: Plant response rating, Deadnettle (deadnettle; [3]) | Plant response rating, Redroot pigweed (redroot pigweed; Rate 125 g/ha) | Plant response rating, Wild oat (wild oat; Rate 62 g/ha) | Plant response rating, Spring Barley (spring barley; [7])
30: Plant response rating, Chickweed (chickweed; Rate 62 g/ha) | Plant response rating, Chickweed (chickweed; [3]) | Plant response rating, LS canarygrass (littleseed canarygrass [1]; Rate 62 g/ha) | Plant response rating, LS canarygrass (littleseed canarygrass [1]; Rate 125 g/ha) | LS canarygrass plant response rating (littleseed canarygrass [1]; [4]) | Plant response rating, Redroot pigweed (redroot pigweed; Rate 62 g/ha) | Plant response rating, C. ragweed (common ragweed; Rate 250 g/ha) | Plant response rating, P. morninglory (pitted morningglory; [5])
10: Plant response rating, Annual bluegras (annual bluegrass; Rate 125 g/ha) | Annual bluegras plant response rating (annual bluegrass; [4]) | Plant response rating, Comnion poppy (common poppy; Rate 125 g/ha, 0 to 100 scale) | Plant response rating, Common poppy (common poppy; Rate 500 g/ha, 0 to 100 scale, 0 no effect, 100 complete control) | Plant response rating, Deadnettle (deadnettle; Rate 125 g/ha) | Plant response rating, Field violet (field violet; [3]) | Plant response rating, I. Ryegrass (Italian ryegrass; Rate 125 g/ha) | I. Ryegrass plant response rating (Italian ryegrass; [4]) | Redroot pigweed plant response rating (redroot pigweed; [4]) | Plant response rating, Wild oat (wild oat; [3]) | Plant response rating, Russian thistle (Russian thistle; [8]) | Spring Barley plant response rating (0 to 100 scale) (spring barley; Rate 250 g/ha)
100: Plant response rating Lambsquarters (lambsquarters; [7]) | Lambsquarters plant response rating (0 to 100 scale) (lambsquarters; Rate 250 g/ha) | Plant response rating Lambsquarters (lambsquarters; [8]) | Plant response rating, Windgrass (windgrass; [7]) | Windgrass plant response rating (0 to 100 scale) (windgrass; Rate 250 g/ha) | Plant response rating, Windgrass (windgrass; [8])
5: Plant response rating, Wild oat (wild oat; Rate 125 g/ha)
70: Plant response rating, Blackgrass (blackgrass; Rate 62 g/ha)
45: Plant response rating, Jointed goatgra (jointed goatgrass; [7])
65: Plant response rating, Annual bluegras (annual bluegrass; [3]) | Plant response rating, LS canarygrass (littleseed canarygrass [1]; [3]) | Plant response rating, P. morninglory (pitted morningglory; Rate 500 g/ha)
35: Plant response rating, Purple nutsedge (purple nutsedge; Rate 500 g/ha)

Reference: US6737383B1, “Herbicidal oxadiazolidines” (priority 1999, dated 2004)
